Reference: PMC10174255, “Drug repurposing approach against chikungunya virus: an in vitro and in silico study” (Frontiers in Cellular and Infection Microbiology, 2023)

How the values were obtained:
MTT cytotoxicity assay = conditions: African green monkey
Vero CCL-81 cells = test: MTT cytotoxicity assay; conditions: for The maximum nontoxic concentration used for primary screening of drugs against CHIKV: Vero CCL-81, ≥90% cell viability
CHIKV [1] = test: Antiviral assay (pre-, co-, posttreatment) with FFU readout; conditions: for anti chikungunya activity: Vero CCL-81, any treatment condition; for IC50 / anti-CHIKV activity in primary screening: FFU; for IC50: Vero CCL-81; for anti-CHIKV activity in primary screening: highest nontoxic concentration
CHIKV [2] = test: Viral RNA copy number by quantitative RT-PCR
CHIKV [3] = test: Immunofluorescence assay (percent infected cells); conditions: posttreatment, IFA, compared to VC
CHIKV [4] = test: Western blot of viral capsid (C) protein; format: cell-based, Chikungunya virus; conditions: posttreatment, maximal non-toxic concentration, normalized to β-actin
Protocol: To investigate the expression of viral proteins, a western blotting assay was performed. […] The cell cultures were subjected to different types of treatment with various concentrations of the appropriate drugs. Cells were lysed using the RIPA buffer and 2X laemmli buffer at 1:1 ratio. The cell culture lysates from uninfected, infected without treatment and infected treated cells were subjected to an electrophoretic run on 10% discontinuous SDS polyacrylamide gels followed by electroblotting onto nitrocellulose membranes. The membranes were then blocked for 30 minutes using phosphate-buffered saline (PBS) containing 5% bovine serum albumin. […] This monoclonal antibody is known to react with the capsid protein of CHIKV and was characterized and purified as described earlier ([Damle et al., 2016]). The membranes were thoroughly rinsed with tris-buffered saline with 0.1% Tween 20 (TBST) after overnight incubation (5 washes totaling a 20-minute soak with rocking), and then they were incubated with the appropriate horseradish peroxidase (HRP) conjugated anti-mouse IgG antibody for two hours while rocking. For developing the blot, ECL substrate (Thermo Scientific) was used in the dark. The image of the blot was captured using the Gel Documentation system (BioRad™, USA), and analysis was done. To quantify the protein signals (density) of the viral protein and housekeeping protein in each lane, ImageJ software was used. After calculating the signal values for each band, the background signals were subtracted from the signal. The relative level of viral protein was normalized to beta-actin (monoclonal antibody 15G5A11/E2, catalog no:MA1-140, Invitrogen, USA). Signal densities were determined using ImageJ software and were plotted using GraphPad Prism software version 7.

CHIKV [5] = test: Time-of-addition assay (extra- and intracellular virus, FFU)

Structure (SMILES): COc1cc2c(cc1Cc1cccc(Cl)c1F)c(=O)c(C(=O)O)cn2[C@H](CO)C(C)C [Elvitegravir]
- CC50 (MTT cytotoxicity assay): 12.7 ± 1.52 µM
- The maximum nontoxic concentration used for primary screening of drugs against CHIKV (Vero CCL-81 cells): 6.25 µM

Structure (SMILES): CC(C)(C(=O)c1cccnc1)c1cccnc1 [Metyrapone]
- anti chikungunya activity (CHIKV [1]): exhibit anti chikungunya activity
- Selectivity Index (SI) (CHIKV [1]; pretreatment): 457.80
- mean log10 viral titer/ml (CHIKV [1]; pretreatment, 100 µM, VC 8.665): 7.136 log10 FFU/ml
- mean log10 viral titer/ml (CHIKV [1]; pretreatment, 200 µM, VC 8.665): 7.115 log10 FFU/ml
- IC50 (CHIKV [1]; pretreatment): 12.2 µM
- anti-CHIKV activity in primary screening (CHIKV [1]; pretreatment): effective
- CC50 (MTT cytotoxicity assay): 5600 ± 6100 µM
- The maximum nontoxic concentration used for primary screening of drugs against CHIKV (Vero CCL-81 cells): 200 µM
- log10 viral RNA copy number (CHIKV [2]; pretreatment, 200 µM, VC 9.670): 8.984

Structure (SMILES): Nc1nc(F)nc2nc[nH]c12 [2-Fluoroadenine]
- anti chikungunya activity (CHIKV [1]): exhibit anti chikungunya activity
- mean log10 viral titer/ml (CHIKV [1]; posttreatment, 50 µM, VC 8.870): 7.686 log10 FFU/ml
- IC50 (CHIKV [1]; posttreatment): 7.59 µM
- anti-CHIKV activity in primary screening (CHIKV [1]; posttreatment): effective
- Selectivity Index (SI) (CHIKV [1]; pretreatment): 45.56
- mean log10 viral titer/ml (CHIKV [1]; pretreatment, 50 µM, VC 8.665): 7.284 log10 FFU/ml
- mean log10 viral titer/ml (CHIKV [1]; pretreatment, 100 µM, VC 8.665): 7.185 log10 FFU/ml
- IC50 (CHIKV [1]; pretreatment): 9.59 µM
- anti-CHIKV activity in primary screening (CHIKV [1]; pretreatment): effective
- CC50 (MTT cytotoxicity assay): 437 ± 320 µM
- The maximum nontoxic concentration used for primary screening of drugs against CHIKV (Vero CCL-81 cells): 100 µM
- effect on viral RNA copy number (CHIKV [2]; pretreatment, 100 µM): significant reduction
- reduction in percentage of infected cells (CHIKV [3]): prominently observed
- viral antigen (C protein) expression (CHIKV [4]): significant reduction
- reduction in intra- and extracellular virus titer (CHIKV [5]; 100 µM, time of addition 0, 3, 6 h): ~ 1 log10
- reduction in intra- and extracellular virus titers (CHIKV [5]; 25 and 50 µM): Mild reduction
- effectiveness at time points of addition (CHIKV [5]; added 0, 3 and 6 h post infection): effective at all three time points

Structure (SMILES): O=C(O)Cc1ccc(-c2ccccc2)cc1 [Felbinac]
- anti chikungunya activity (CHIKV [1]): exhibit anti chikungunya activity
- Selectivity Index (SI) (CHIKV [1]; pretreatment): 2205.88
- mean log10 viral titer/ml (CHIKV [1]; pretreatment, 1.56 µM, VC 8.665): 7.175 log10 FFU/ml
- mean log10 viral titer/ml (CHIKV [1]; pretreatment, 3.125 µM, VC 8.665): 7.040 log10 FFU/ml
- IC50 (CHIKV [1]; pretreatment): 0.238 µM
- anti-CHIKV activity in primary screening (CHIKV [1]; pretreatment): effective
- CC50 (MTT cytotoxicity assay): 525 ± 200 µM
- The maximum nontoxic concentration used for primary screening of drugs against CHIKV (Vero CCL-81 cells): 3.125 µM
- effect on viral RNA copy number/titre (CHIKV [2]; pretreatment): did not have any effect

Structure (SMILES): Cc1ccc(NC(=O)c2ccc(CN3CCN(C)CC3)cc2)cc1Nc1nc(-c2cccnc2)cs1 [Masitinib]
- cytotoxicity (Vero CCL-81 cells; Vero CCL-81, even at lowest concentrations): highly toxic

Structure (SMILES): COc1cccc2c1C(=O)c1c(O)c3c(c(O)c1C2=O)C[C@@](O)(C(=O)CO)C[C@@H]3O[C@H]1C[C@H](N)[C@H](O)[C@H](C)O1 [Doxorubicin]
- anti chikungunya activity (CHIKV [1]): exhibit anti chikungunya activity
- Selectivity Index (SI) (CHIKV [1]; posttreatment): 18.24
- mean log10 viral titer/ml (CHIKV [1]; posttreatment, 6.25 µM, VC 8.870): 7.758 log10 FFU/ml
- mean log10 viral titer/ml (CHIKV [1]; posttreatment, 12.5 µM, VC 8.870): 7.509 log10 FFU/ml
- mean log10 viral titer/ml (CHIKV [1]; posttreatment, 25 µM, VC 8.870): 7.376 log10 FFU/ml
- IC50 (CHIKV [1]; posttreatment): 6.41 µM
- anti-CHIKV activity in primary screening (CHIKV [1]; posttreatment): effective
- Selectivity Index (SI) (CHIKV [1]; pretreatment): 16.95
- mean log10 viral titer/ml (CHIKV [1]; pretreatment, 12.5 µM, VC 8.665): 7.460 log10 FFU/ml
- mean log10 viral titer/ml (CHIKV [1]; pretreatment, 25 µM, VC 8.665): 7.333 log10 FFU/ml
- IC50 (CHIKV [1]; pretreatment): 6.9 µM
- anti-CHIKV activity in primary screening (CHIKV [1]; pretreatment): effective
- CC50 (MTT cytotoxicity assay): 117 ± 8.25 µM
- The maximum nontoxic concentration used for primary screening of drugs against CHIKV (Vero CCL-81 cells): 25 µM
- effect on viral RNA copy number/titre (CHIKV [2]; posttreatment): no decrease
- effect on viral RNA copy number/titre (CHIKV [2]; pretreatment): no decrease
- reduction in percentage of infected cells (CHIKV [3]): prominently observed
- viral antigen (C protein) expression (CHIKV [4]): significant reduction
- effect on intra- and extracellular virus particles (CHIKV [5]; 25 µM, added at 0, 3 and 6 h): exerted reduction
- reduction in intracellular virus titer (CHIKV [5]; 12.5 and 6.25 µM): not as prominent as extracellular virus titer

Structure (SMILES): CC(C)Cn1c(=O)n(C)c(=O)c2[nH]cnc21 [3-isobutyl 1-methylxanthine]
- CC50 (MTT cytotoxicity assay): 177 ± 21.7 µM
- The maximum nontoxic concentration used for primary screening of drugs against CHIKV (Vero CCL-81 cells): 50 µM
